In patent US8349851B2, “JAK kinase modulating compounds and methods of use thereof” (Ambit Biosciences Corp., priority 2009, dated 2013):
Counter-ions that a name gives are not always drawn.

Tests used:
JAK3 = biological target: T1, JAK3 (Homo sapiens, UniProt P52333); experiment: Competition binding assay, JAK3; conditions: read-out: Binding Assay: JAK3 (active_KD, ENZ)
T1 construct: made in house
From the text: (§1) Competition Binding Assay to Determine Binding Constants (Kd) of the Compounds Against JAK Kinases
(§2) Competition binding assays used herein were developed, validated and performed as described in Fabian et al., Nature Biotechnology 2005, 23,329-336. Kinases were produced as fusions to T7 phage (See, Fabian et al. or WO04/015142) or alternatively, the kinases were expressed in HEK-293 cells and subsequently tagged with DNA for PCR detection (See, WO08/005310). For the binding assays, streptavidin-coated magnetic beads were treated with biotinylated affinity ligands for 30 min at rt to generate affinity resins. The liganded beads were blocked with excess biotin and washed with blocking buffer (SeaBlock (Pierce), 1% BSA, 0.05% Tween 20, 1 mM DTT) to remove unbound ligand and to reduce non-specific binding. […] Test compounds were prepared as 100× stocks in DMSO and rapidly diluted into the aqueous environment. DMSO was added to control assays lacking a test compound. Primary screen interactions were performed in polypropylene 384-well plates in a final volume of 34 μL, while Kd determinations were performed in polystyrene 96-well plates in a final volume of 135 μL. […] The kinase concentration in the eluates was measured by quantitative PCR. Each kinase was tested individually against each compound. Kds were determined using eleven serial threefold dilutions. A selectivity score, which is a quantitative measure of selectivity of a compound against a panel of enzymes, may be calculated for a compound by dividing the number of enzymes for which a compound meets a set criteria, (for example, a binding constant of 100 nM or less), by the total number of enzymes tested.

JAK2 = biological target: T2, JAK2 (Homo sapiens, UniProt O60674); experiment: Competition binding assay, JAK2; conditions: read-out: Binding Assay: JAK2 (active_KD)
T2 construct: made in house
T2 sequence (O60674 849-1124 limits assumed): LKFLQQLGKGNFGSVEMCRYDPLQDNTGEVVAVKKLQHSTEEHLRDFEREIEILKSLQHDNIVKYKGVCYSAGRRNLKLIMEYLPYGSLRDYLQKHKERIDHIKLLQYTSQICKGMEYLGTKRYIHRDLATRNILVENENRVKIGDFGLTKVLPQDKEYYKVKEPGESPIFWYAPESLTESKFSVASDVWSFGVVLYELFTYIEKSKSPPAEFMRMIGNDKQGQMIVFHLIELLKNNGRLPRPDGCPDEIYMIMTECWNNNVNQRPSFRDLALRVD
From the text: as §1, §2

[1] = system: csTF-1 cells (GM-CSFR/JAK2/STAT5 pathway); experiment: csTF-1 cell-based reporter assay; parameters: species or system human; conditions: Homo sapiens; GM-CSF at 2 ng/mL, 4 hours; read-out: Cell Assay: CS0017: CS TF-1 reporter assay: IC50
Description: csTF-1 Cell-based Reporter Assay
csTF-1 cells are derived from the human erythroleukemia cell line that is growth dependent on GM-CSF and has an intact GM-CSFR/JAK2/STAT5 pathway. The cell line contains stably integrated beta-lactamase reporter gene under the control of the […] (irf 1) response element recognized by the activated transcription factor STATS. csTF-1 cells (Invitrogen K1219) were washed with assay media (97% OPTIMEM/0.5% dialyzed FBS/0.1 mM NEAA/1 mM Na pyr/P/S) and seeded in the same media at 5×10^5 cell/mL in T150 flask. After 16 hour incubation, cells were seeded at 2×10^5 cell/well in 50 μl volume, into Costar, clear bottom, 96-well assay plates. Serial dilutions of compounds were added to the plates with final DMSO concentration at 0.5% and GM-CSF at 2 ng/mL and the plates were then incubated at […] and 5% CO2 for 4 hours. The plates were brought to room temperature before adding Substrate Mixture according to manufacturer's protocol (Invitrogen, Catalog #K1085). The assay plates containing the substrate mixture were incubated in the dark at room temperature for 2 hours. Blue and green fluorescence was measured with excitation at 409 nm and emission at 460 nm (for blue) and excitation at 409 nm and emission at 530 nm (for green) using Spectra Max Gemini EM.

AuroraB = biological target: T3, AuroraB (Homo sapiens, UniProt Q96GD4); experiment: Competition binding assay, Aurora B
T3 construct: made in house
T3 sequence (Q96GD4 whole entry): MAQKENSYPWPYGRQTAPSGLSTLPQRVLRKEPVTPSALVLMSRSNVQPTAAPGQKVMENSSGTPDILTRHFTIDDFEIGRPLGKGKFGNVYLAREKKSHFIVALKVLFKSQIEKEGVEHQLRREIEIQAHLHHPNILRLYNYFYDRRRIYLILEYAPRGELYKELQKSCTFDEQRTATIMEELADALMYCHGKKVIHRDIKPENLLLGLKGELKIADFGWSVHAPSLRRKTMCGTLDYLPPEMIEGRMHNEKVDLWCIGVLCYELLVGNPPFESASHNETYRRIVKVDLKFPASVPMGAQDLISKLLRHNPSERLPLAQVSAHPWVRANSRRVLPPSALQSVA
From the text: Methods for determining binding constant against Aurora B kinase are known to one of skill in the art. Exemplary methods are described in U.S. provisional application No. 61/294,413, and Fabian et al., Nature Biotechnology 2005, 23,329-336.
as §2

T1 sequence (P52333 822-1111 limits assumed): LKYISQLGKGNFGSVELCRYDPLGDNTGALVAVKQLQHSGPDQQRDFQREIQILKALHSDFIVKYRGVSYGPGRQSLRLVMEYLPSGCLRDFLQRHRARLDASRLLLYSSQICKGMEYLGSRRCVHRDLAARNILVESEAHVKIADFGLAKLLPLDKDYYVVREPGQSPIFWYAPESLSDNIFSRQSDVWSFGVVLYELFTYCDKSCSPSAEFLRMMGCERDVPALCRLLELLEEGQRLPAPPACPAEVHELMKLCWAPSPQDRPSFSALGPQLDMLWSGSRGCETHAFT

Kd (JAK3) [µM] | Kd (JAK2) [µM] | IC50 [1] [µM] | Kd (AuroraB) [µM] | Structure (SMILES)
> 0.1 | 0.001 to 0.01 | 0.1 to 0.5 | > 0.2 | COc1ccccc1C(=O)c1nc(Nc2cc[nH]n2)c2ccccc2n1 [Example 5, (4-(1H-pyrazol-3-ylamino)quinazolin-2-yl)(2-methoxyphenyl)methanone]
> 0.1 | 0.001 to 0.01 | 0.1 to 0.5 | 0.05 to 0.2 | COc1ccc2c(Nc3cc[nH]n3)nc(C(F)(F)c3ccc(F)cc3)nc2c1 [Example 33, 2-(difluoro(4-fluorophenyl)methyl)-7-methoxy-N-(1H-pyrazol-3-yl)quinazolin-4-amine]
0.01 to 0.1 | ≤ 0.001 | ≤ 0.1 | > 0.2 | O=C(c1ccc(F)cc1)c1nc(Nc2cc[nH]n2)c2ccccc2n1 [Example 4, (4-(1H-pyrazol-3-ylamino)quinazolin-2-yl)(4-fluorophenyl)methanone]
0.01 to 0.1 | 0.001 to 0.01 | 0.1 to 0.5 | > 0.2 | Cc1cc(Nc2nc(C(=O)c3cccc(F)c3)nc3ccccc23)n[nH]1 [Example 1, (3-fluorophenyl)(4-(5-methyl-1H-pyrazol-3-ylamino)quinazolin-2-yl)methanone]
0.01 to 0.1 | 0.001 to 0.01 | ≤ 0.1 | > 0.2 | Cc1cc(Nc2nc(C(=O)c3ccc(F)cc3)nc3cc(F)ccc23)n[nH]1 [Example 19, (7-fluoro-4-(5-methyl-1H-pyrazol-3-ylamino)quinazolin-2-yl)(4-fluorophenyl)methanone]
0.01 to 0.1 | ≤ 0.001 | ≤ 0.1 | 0.02 to 0.05 | Cc1cc(Nc2nc(C(O)c3ccc(F)cc3)nc3cc(O)ccc23)n[nH]1 (racemic) [Example 36, (R,S)-2-((4-fluorophenyl)(hydroxy)methyl)-4-(5-methyl-1H-pyrazol-3-ylamino)quinazolin-7-ol]
0.01 to 0.1 | 0.001 to 0.01 | 0.1 to 0.5 | > 0.2 | Cc1cc(Nc2nc(C(N)c3ccc(F)cc3)nc3ccccc23)n[nH]1 (racemic) [Example 14, (R,S)-2-(amino(4-fluorophenyl)methyl)-N-(5-methyl-1H-pyrazol-3-yl)quinazolin-4-amine]
0.01 to 0.1 | ≤ 0.001 | ≤ 0.1 | > 0.2 | Cc1cc(Nc2nc(C(=O)c3ccc(F)cc3)nc3cc(O)ccc23)n[nH]1 [Example 37, (4-fluorophenyl)(7-hydroxy-4-(5-methyl-1H-pyrazol-3-ylamino)quinazolin-2-yl)methanone]
0.01 to 0.1 | ≤ 0.001 | ≤ 0.1 | > 0.2 | Cc1cc(Nc2nc(C(=O)c3ccc(F)cc3)nc3ccccc23)n[nH]1 [Example 3, (4-fluorophenyl)(4-(5-methyl-1H-pyrazol-3-ylamino)quinazolin-2-yl)methanone]
0.01 to 0.1 | ≤ 0.001 | 0.1 to 0.5 | > 0.2 | Cc1cc(Nc2nc(C(O)c3ccc(F)cc3)nc3c(C)cccc23)n[nH]1 (racemic) [Example 46, (R,S)-(4-fluorophenyl)(8-methyl-4-(5-methyl-1H-pyrazol-3-ylamino)quinazolin-2-yl)methanol]
> 0.1 | 0.001 to 0.01 | 0.1 to 0.5 | > 0.2 | COc1ccc2c(Nc3cc[nH]n3)nc(C(=O)c3ccc(F)cc3)nc2c1 [Example 28, (4-(1H-pyrazol-3-ylamino)-7-methoxyquinazolin-2-yl)(4-fluorophenyl)methanone]

The remaining lines, values behind:

Structure (SMILES) | Kd (JAK3) [µM] | Kd (JAK2) [µM] | IC50 [1] [µM] | Kd (AuroraB) [µM]
Cc1cc(Nc2nc(C(O)c3ccc(F)cc3)nc3ccccc23)n[nH]1 (racemic) [Example 12, (R,S)-(4-fluorophenyl)(4-(5-methyl-1H-pyrazol-3-ylamino)quinazolin-2-yl)methanol hydrochloride] | – | – | ≤ 0.1 | 0.05 to 0.2
Cc1cc(Nc2nc(C(O)c3ccc(F)cc3)nc3cc(OCC(=O)O)ccc23)n[nH]1 (racemic) [Example 44, (R,S)-2-(2-((4-fluorophenyl)(hydroxy)methyl)-4-(5-methyl-1H-pyrazol-3-ylamino)quinazolin-7-yloxy)acetic acid] | ≤ 0.01 | ≤ 0.001 | > 0.5 | > 0.2
Cc1cc(Nc2nc(C(F)(F)c3ccc(F)cc3)nc3ccccc23)n[nH]1 [Example 8, 2-(difluoro(4-fluorophenyl)methyl)-N-(5-methyl-1H-pyrazol-3-yl)quinazolin-4-amine] | ≤ 0.01 | ≤ 0.001 | ≤ 0.1 | > 0.2
Cc1cc(Nc2nc(C(O)c3ccc(F)cc3)nc3cc(Cl)ccc23)n[nH]1 (racemic) [Example 52, (R,S) (7-chloro-4-(5-methyl-1H-pyrazol-3-ylamino)quinazolin-2-yl)(4-fluorophenyl)methanol] | 0.01 to 0.1 | 0.001 to 0.01 | ≤ 0.1 | > 0.2
Cc1cc(Nc2nc(C(O)c3ccc(F)cc3)nc3cccc(F)c23)n[nH]1 (racemic) [Example 16, (R,S)-(5-fluoro-4-(5-methyl-1H-pyrazol-3-ylamino)quinazolin-2-yl)(4-fluorophenyl)methanol] | > 0.1 | > 0.01 | 0.1 to 0.5 | > 0.2
Fc1ccc(C(F)(F)c2nc(Nc3cc(C4CC4)[nH]n3)c3ccccc3n2)cc1 [Example 10, N-(5-cyclopropyl-1H-pyrazol-3-yl)-2-(difluoro(4-fluorophenyl)methyl)quinazolin-4-amine] | ≤ 0.01 | 0.001 to 0.01 | ≤ 0.1 | > 0.2
Cc1cc(Nc2nc(C(O)c3ccc(F)cc3)nc3cc(OCC(=O)OC(C)(C)C)ccc23)n[nH]1 (racemic) [Example 43, (R,S)-tert-butyl 2-(2-((4-fluorophenyl)(hydroxy)methyl)-4-(5-methyl-1H-pyrazol-3-ylamino)quinazolin-7-yloxy)acetate] | 0.01 to 0.1 | ≤ 0.001 | 0.1 to 0.5 | > 0.2
COCCOc1ccc2c(Nc3cc(C)[nH]n3)nc(C(O)c3ccc(F)cc3)nc2c1 (racemic) [Example 42, (R,S)-(4-fluorophenyl)(7-(2-methoxyethoxy)-4-(5-methyl-1H-pyrazol-3-ylamino)quinazolin-2-yl)methanol] | ≤ 0.01 | ≤ 0.001 | ≤ 0.1 | > 0.2
Cc1cc(Nc2nc(C(O)c3ccc(F)cc3)nc3cc(C(F)(F)F)ccc23)n[nH]1 (racemic) [Example 18, (R,S)-(4-fluorophenyl)(4-(5-methyl-1H-pyrazol-3-ylamino)-7-(trifluoromethyl)quinazolin-2-yl)methanol] | 0.01 to 0.1 | 0.001 to 0.01 | 0.1 to 0.5 | > 0.2
COc1ccc2c(Nc3cc(C)[nH]n3)nc(C(O)c3ccc(F)cc3)nc2c1 (racemic) [Example 31, (R,S)-(4-fluorophenyl)(7-methoxy-4-(5-methyl-1H-pyrazol-3-ylamino)quinazolin-2-yl)methanol] | 0.01 to 0.1 | ≤ 0.001 | ≤ 0.1 | > 0.2
Cc1cc(Nc2nc(C(O)c3cccc(F)c3)nc3ccccc23)n[nH]1 (stereo not shown) [Example 64, (3-fluorophenyl)(4-(5-methyl-1H-pyrazol-3-ylamino)quinazolin-2-yl)methanol] | 0.01 to 0.1 | 0.001 to 0.01 | 0.1 to 0.5 | –
COc1ccccc1C(=O)c1nc(Nc2cc(C)[nH]n2)c2ccccc2n1 [Example 62, (2-methoxyphenyl)(4-(5-methyl-1H-pyrazol-3-ylamino)quinazolin-2-yl)methanone] | > 0.1 | 0.001 to 0.01 | 0.1 to 0.5 | –
